Data taken from patent publication US10023561B2, “Fumagillol heterocyclic compounds and methods of making and using same” (Zafgen, Inc., priority 2015, dated 2018).
Several values for one entry are separate records, joined by “and”; a condition that tells them apart may be missing. Equal entries are not always repeated. Structures can show the parent of a compound that is named as a salt. Where two headings read alike, the source gives them in different places.

Key:
[1] = system: Diet Induced Obese (DIO) C57BL/6 mice; assay: 10 day DIO mouse model (body weight, food intake, hematology, blood chemistry); type: in vivo
Excerpt: The objective of this study design was to investigate the efficacy of disclosed compounds in a 10 day DIO mouse model. Effects on body weight, food intake, hematology and blood chemistry were the primary readouts of this study design. […] Mice were fed Research Diets D12492 (60% Kcal fat, 20% Kcal carbohydrate and 20% protein) and provided water ad libitum. DIO mice were received and housed in the facility for approximately two weeks prior to the start of test article administration. On Day −4 or −3, mice were randomized into study groups based on body weight and body weights were continued to be recorded daily for the duration of the study. Daily food intake was assessed starting on Study Day −2 by weighing of the food with hopper together to avoid loss of food in transfer.
(§1) Compounds were formulated into a 100% DMSO stock (at 9 mg/mL) prior to the start, and further diluted into the target working concentration using the vehicle of 10% DMSO in water. Prior to test article administration, starting on Day −3 a dosing acclimation occurred with all animals receiving a subcutaneous injection of vehicle (10% DMSO) only for 3 days. Starting on Day 1, test compounds or vehicle were administered based on individual body weight, subcutaneously, once a day for 10 days. All mice were sacrificed on Day 11, 24 hours following the final dosing on Day 10. After sacrifice, whole blood was collected and analyzed for hematology and blood chemistry parameters.
(§2) Compounds were tested vs. vehicle at various doses (1.0, 0.5, 0.3, 0.1, 0.03 mpk sc (mg per kg animal weight delivered subcutaneously), and the results are shown in Table 2 below.

recombinant human MetAP2 = recombinant human MetAP2 (Homo sapiens (Human), UniProt P50579); assay: recombinant human MetAP2 enzyme inhibition assay (MAS peptide / amino acid oxidase / Amplex UltraRed); type: biochemical; conditions: recombinant human MetAP2, 25 minutes at 25° C.
Description: Compounds are tested for their capacity to inhibit recombinant human MetAP2 activity using the following assay.
Flag tagged Human recombinant MetAP2 expressed and isolated for use as the enzyme source. 10 mM stock solutions of compounds were prepared in 100% DMSO and further diluted in 100% DMSO required concentration to 1 mM stocks. The stock compound solutions and DMSO vehicle controls were diluted to target final compound concentrations using assay buffer to a final concentration of 50 mM HEPES containing 100 mM NaCl, pH adjusted to 7.5. The MAS peptide was formulated to a 7.5 mM stock in distilled water and prior to use further diluted 1:4. […] 40 μl of enzyme was mixed with 100 μl of MnCl2 then further diluted in assay buffer to a final concentration of 16 μg/ml. To test for compound effect on MetAP2 enzyme activity, 5 μl of test compound, 10 μl of MAS substrate/amino acid oxidase mixture, 10 μl of MetAP2 was added to test wells in a 384 well black plate with blank wells containing no enzyme, replaced with 10 μl of assay buffer. All compounds were tested in duplicate on two occasions on the same day.
The plate was sealed with a TopSeal A cover and mixed briefly on an orbital mixer at 900 rpm. The plate was incubated for a further 25 minutes at 25° C. […] At the end of the MetAP2 incubation 25 μl Amplex/HRP mixture per well was added and the plate read plate on a plate reader.

[2] = system: Sprague Dawley rats on 45% high fat diet; assay: 11 day rat DIO model (body weight, food intake, hematology, blood chemistries); type: in vivo
Excerpt: The objective of this study design is to investigate the efficacy of disclosed compounds in an 11 day rat DIO model used to screen compounds for pharmacologic efficacy on endpoints related to obesity and metabolism. Effects on body weight, food intake, hematology and blood chemistries were the primary readouts of this study design. […] Rats were fed Research Diets D12451 (45% High Fat) and provided water ad libitum. Rats were received and housed in the facility for at least two or three weeks prior to start of test article administration. On Day −4 or −3, rats were randomized into study groups based on body weight and body weights were continued to be recorded daily for the duration of the study. Daily food intake was assessed starting on Study Day −2 by weighing the hopper including the food to avoid loss of food in transfer.
as §1, with “for 11” for “for 10”, “All animals” for “All mice”, “11, approximately 2” for “11, 24”, “Day 11.” for “Day 10.”
as §2

[3] = system: human fibrosarcoma cell line HT-1080; assay: HT-1080 cell proliferation assay (CellTiter-Glo, 72 hours); type: cell-based
[4] = HT-1080, 72 h, read-out: HT-1080 EC50 (nM)
[5] = HT-1080 cells, 72 hours incubation, CellTiter-Glo, read-out: HT-1080 EC50

Chain of recombinant human MetAP2 (P50579 whole entry): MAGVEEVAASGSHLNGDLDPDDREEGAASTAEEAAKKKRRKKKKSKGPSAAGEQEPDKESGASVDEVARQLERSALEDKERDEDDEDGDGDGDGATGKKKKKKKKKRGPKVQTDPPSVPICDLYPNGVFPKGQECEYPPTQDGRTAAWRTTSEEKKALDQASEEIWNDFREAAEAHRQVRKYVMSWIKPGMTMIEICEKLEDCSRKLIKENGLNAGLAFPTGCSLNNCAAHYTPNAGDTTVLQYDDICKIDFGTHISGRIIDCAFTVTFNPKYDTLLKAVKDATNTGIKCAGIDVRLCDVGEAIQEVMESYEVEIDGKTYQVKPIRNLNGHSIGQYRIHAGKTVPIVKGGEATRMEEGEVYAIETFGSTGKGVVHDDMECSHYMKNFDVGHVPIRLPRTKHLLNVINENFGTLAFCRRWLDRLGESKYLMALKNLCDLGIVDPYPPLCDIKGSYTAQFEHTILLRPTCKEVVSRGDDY

CO[C@@H]1[C@H](OC(=O)N2CC(CCCN3CCCC3)C2)CC[C@]2(CO2)[C@H]1[C@@]1(C)O[C@@H]1CC=C(C)C [Example 59, (3R,4S,5S,6R)-5-methoxy-4-((2R,3R)-2-methyl-3-(3-methylbut-2-enyl)oxiran-2-yl)-1-oxaspiro[2.5]octan-6-yl 3-(3-(pyrrolidin-1-yl)propyl)azetidine-1-carboxylate formate]
body weight loss vs vehicle at 0.3 mg/kg ([1]; 240 h, DIO mouse, 0.3 mpk sc once a day, 10 days): 9.1% | IC50 (recombinant human MetAP2): < 50 nM

CO[C@@H]1[C@H](OC(=O)N2CC(CCN3CC(C)(O)C3)C2)CC[C@]2(CO2)[C@H]1[C@@]1(C)O[C@@H]1CC=C(C)C [Example 9, (3R,4S,5S,6R)-5-methoxy-4-((2R,3R)-2-methyl-3-(3-methylbut-2-enyl)oxiran-2-yl)-1-oxaspiro[2.5]octan-6-yl 3-(2-(3-hydroxy-3-methylazetidin-1-yl)ethyl)azetidine-1-carboxylate formate]
DIO Rat 11-day weight loss vs vehicle ([2]; rat, in vivo, formate): 5.5% and 4.8% | DIO Mouse 10-day weight loss vs vehicle ([1]; mouse, in vivo): 7.4% | EC50 [3, 4]: < 0.3 nM

CCN(CC)CCC1CN(C(=O)O[C@@H]2CC[C@]3(CO3)[C@@H]([C@@]3(C)O[C@@H]3CC=C(C)C)[C@@H]2OC)C1 [Example 103, (3R,4S,5S,6R)-5-methoxy-4-((2R,3R)-2-methyl-3-(3-methylbut-2-enyl)oxiran-2-yl)-1-oxaspiro[2.5]octan-6-yl 3-(2-(diethylamino)ethyl)azetidine-1-carboxylate]
EC50 [3, 5]: < 0.3 nM

CCN(CC)CCC1CCN1C(=O)O[C@@H]1CC[C@]2(CO2)[C@@H]([C@@]2(C)O[C@@H]2CC=C(C)C)[C@@H]1OC (stereo partly drawn) [Example 106, (3R,4S,5S,6R)-5-methoxy-4-((2R,3R)-2-methyl-3-(3-methylbut-2-enyl)oxiran-2-yl)-1-oxaspiro[2.5]octan-6-yl 2-(2-(diethylamino)ethyl)azetidine-1-carboxylate]
DIO Rat 11-day weight loss vs vehicle ([2]; DIO rat, 0.5 mpk sc once a day, 11 days): 4.82% | DIO Mouse 10-day weight loss vs vehicle ([1]; DIO mouse, 0.1 mpk sc once a day, 10 days): 2%

CO[C@@H]1[C@H](OC(=O)N2CC(CCN3CCC(O)CC3)C2)CC[C@]2(CO2)[C@H]1[C@@]1(C)O[C@@H]1CC=C(C)C [Example 7, (3R,4S,5S,6R)-5-methoxy-4-((2R,3R)-2-methyl-3-(3-methylbut-2-en-1-yl)oxiran-2-yl)-1-oxaspiro[2.5]octan-6-yl 3-(2-(4-hydroxypiperidin-1-yl)ethyl)azetidine-1-carboxylate]
DIO Mouse 10-day weight loss vs vehicle ([1]; DIO mouse, 0.3 mpk sc once a day, 10 days): 1.8%

CNC(=O)OC1CN(C(=O)O[C@@H]2CC[C@]3(CO3)[C@@H]([C@@]3(C)O[C@@H]3CC=C(C)C)[C@@H]2OC)C1 [Example 74, (3R,4S,5S,6R)-5-methoxy-4-((2R,3R)-2-methyl-3-(3-methylbut-2-enyl)oxiran-2-yl)-1-oxaspiro[2.5]octan-6-yl 3-(methylcarbamoyloxy)azetidine-1-carboxylate]
EC50 [3, 5]: < 0.3 nM

CO[C@@H]1[C@H](OC(=O)N2CC(CCN3CC4C(C3)C4(F)F)C2)CC[C@]2(CO2)[C@H]1[C@@]1(C)O[C@@H]1CC=C(C)C (stereo partly drawn) [Example 22, (3R,4S,5S,6R)-5-methoxy-4-((2R,3R)-2-methyl-3-(3-methylbut-2-enyl)oxiran-2-yl)-1-oxaspiro[2.5]octan-6-yl 3-(2-(6,6-difluoro-3-azabicyclo[3.1.0]hexan-3-yl)ethyl)azetidine-1-carboxylate formate]
DIO Mouse 10-day weight loss vs vehicle ([1]; mouse, in vivo): 14% | EC50 [3, 4]: 0.3 to 1.3 nM

CO[C@@H]1[C@H](OC(=O)N2CC(CCN3CC(O)C3)C2)CC[C@]2(CO2)[C@H]1[C@@]1(C)O[C@@H]1CC=C(C)C [Example 6, (3R,4S,5S,6R)-5-methoxy-4-((2R,3R)-2-methyl-3-(3-methylbut-2-enyl)oxiran-2-yl)-1-oxaspiro[2.5]octan-6-yl 3-(2-(3-hydroxyazetidin-1-yl)ethyl)azetidine-1-carboxylate formate]
DIO Rat 11-day weight loss vs vehicle ([2]; rat, in vivo, formate): 0.8% and 4.6% | DIO Mouse 10-day weight loss vs vehicle ([1]; mouse, in vivo): 11.8% | EC50 [3, 4]: < 0.3 nM

CCN(CC)CCNC(=O)CCC1CN(C(=O)O[C@@H]2CC[C@]3(CO3)[C@@H]([C@@]3(C)O[C@@H]3CC=C(C)C)[C@@H]2OC)C1 [Example 88, (3R,4S,5S,6R)-5-methoxy-4-((2R,3R)-2-methyl-3-(3-methylbut-2-enyl)oxiran-2-yl)-1-oxaspiro[2.5]octan-6-yl 3-(3-(2-(diethylamino)ethylamino)-3-oxopropyl)azetidine-1-carboxylate formate]
DIO Rat 11-day weight loss vs vehicle ([2]; rat, in vivo): 4.4% | DIO Mouse 10-day weight loss vs vehicle ([1]; mouse, in vivo): 9% | EC50 [3, 4]: 0.3 to 1.3 nM
